According to patent US8535904B2, “Method of enhancing skin barrier function” (Pola Chemical Industries Inc., priority 2006, dated 2013):

Tests used:
[1] = system: normal human epidermal keratinocytes (NHEK); test: Calcium ion permeation through cultured normal human epidermal keratinocyte layer (Transwell, Arsenazo III quantification); type: cell-based; conditions: 10^-1% test substance; calcium loaded concentration 5 mM; control = test substance concentration 0; FIG. 5/FIG. 6
Protocol: Frozen normal human epidermal keratinocytes (NHEK) (manufactured by Kurabo Industries Ltd.) were thawed and cultured in a 0.15 mM Ca-containing culture medium (Humedia-KG2; manufactured by Kurabo Industries Ltd.) at 37° C. in 50% carbon dioxide atmosphere. A Transwell (registered trademark) manufactured by Corning Incorporated (diameter 12 mm, polyethylene terephthalate, 0.4 μm pore) was placed on a Millicell (registered trademark) tissue culture plate (manufactured by Millipore), and the above-mentioned culture medium was added in amounts of 1.5 ml to the lower layer and 0.5 ml to the upper layer. […]
The recovered samples were quantified with quantification reagents {Ca-Arsenazo-III, Mg-Xylidyl blue I (both are manufactured by Fluka)}. […] The net flux (mass transfer per unit time and unit area) was calculated from the quantification results, and Ca and Mg ion permeability coefficients were calculated by the following formula.
a) 7.76 mg of Arsenazo III was dissolved in 100 μl of 1N NaOH, and the volume of the solution was adjusted to 50 ml with the apical solution for Ca prepared in Table 1 (Ca quantification solution). […]
c) In order to quantify Ca in a sample, the Ca quantification solution and the sample were each added to the plate in an amount of 50 μl/well to measure ODs (600). […]

[2] = system: normal human epidermal keratinocytes (NHEK); test: TER (transepithelial electrical resistance) of cultured normal human epidermal keratinocyte layer; type: cell-based; conditions: 10^-4 v/v % in culture medium; TER measured at addition and 1, 2, 3, 4 days later; FIG. 7
Protocol: Frozen normal human epidermal keratinocytes (NHEK) (manufactured by Kurabo Industries Ltd.) were thawed and cultured in a 0.15 mM Ca-containing culture medium (Humedia-KG2; manufactured by Kurabo Industries Ltd.) at 37° C. in […] atmosphere. A Transwell manufactured by Corning Incorporated (diameter 12 mm, polyethylene terephthalate, 0.4 μm pore) was placed on a Millicell tissue culture plate (manufactured by Millipore), and the above-mentioned culture medium was added in amounts of 0.5 ml to the upper layer and 1.5 ml to the lower layer. Then, the normal human epidermal keratinocytes (NHEK) were inoculated at 1×10^5/cm^2 and cultured for additional 72 hours. […] Thereafter, the medium was exchanged for a culture medium containing 10^−4 v/v % α,ε-bis(γ-N-lauroylglutamyl)lysine (Pellicer L-30 (registered trademark) (hereinafter, referred to as Pellicer); manufactured by Asahi Kasei Corporation), and TERs were measured. The culture was further continued, and one, two, three, and four days later, TERs were measured.
Frozen normal human epidermal keratinocytes (NHEK) (manufactured by Kurabo Industries Ltd.) were thawed and cultured in a 0.15 mM Ca-containing culture medium (Humedia-KG2; manufactured by Kurabo Industries Ltd.) at 37° C. in 50% carbon dioxide atmosphere. […] The culture was further continued, and one, two, three, and four days later, TERs were measured.

SMILES | inhibition of the transference of a calcium ion (calcium ion permeation ratio vs control) [1] | TER (resistance value) compared with the control [2]
C[N+](C)(C)C[C@H](O)CC(=O)[O-] [L-carnitine, reference compound] | had ability to inhibit the transference of a calcium ion | 
CCCCCCCCCCCC(=O)N[C@@H](CCC(=O)NCCCC[C@H](NC(=O)CC[C@H](NC(=O)CCCCCCCCCCC)C(=O)O)C(=O)O)C(=O)O [Pellicer, α,ε-bis(γ-N-lauroylglutamyl)lysine] |  | increased resistance value compared with the control
N[C@@H](CCCCNC(=O)CC[C@H](N)C(=O)O)C(=O)O [ε,γ-glutamyl lysine] | had ability to inhibit the transference of the calcium ion | 
